Structures are written as SMILES.

The test system of assay [1] is WT 39-mer Bcl-2 promoter sequence G-quadruplex (39Bcl-2) (DNA, G4) AGGGGCGGGCGCGGGAGGAAGGGGGCGGGAGCGGGGCTG
Kind of assay: ESI-MS. Particulars: 50 mM ammonium acetate, 20% methanol, pH about 7, 80 µM DNA, 320 µM porphyrin.

Assay [2] has the same test system. Kind of assay: ITC. Particulars: 130 mM KCl, 20 mM potassium phosphate, 2 mM K4EDTA, pH 7.0, 25 °C.

`C[n+]1ccc(-c2c3nc(c(-c4cc[n+](C)cc4)c4ccc([nH]4)c(-c4cc[n+](C)cc4)c4nc(c(-c5cc[n+](C)cc5)c5ccc2[nH]5)C=C4)C=C3)cc1`: in assay [1] (no free DNA seen), the binding entry is on record as “yes”. Besides, the K1 in assay [2] (site 1 of 2 (two equivalent sites per mode)) is 37.0 ± 4.0 × 10^5.
Consider `C[n+]1cccc(-c2c3nc(c(-c4ccc[n+](C)c4)c4ccc([nH]4)c(-c4ccc[n+](C)c4)c4nc(c(-c5ccc[n+](C)c5)c5ccc2[nH]5)C=C4)C=C3)c1`, for which, in assay [1] (some free DNA seen), the binding entry is “yes”. The K1 in assay [2] (two equivalent sites) is on record as 2.6 ± 0.5 × 10^5.
Taken in the same sequence, the figures for `C[n+]1ccccc1-c1c2nc(c(-c3cccc[n+]3C)c3ccc([nH]3)c(-c3cccc[n+]3C)c3nc(c(-c4cccc[n+]4C)c4ccc1[nH]4)C=C3)C=C2` were “yes” and 0.7 ± 0.5 × 10^5.

The values above are taken from publication PMC3748076 (2013).
